Laboratory results reported in ChEMBL document CHEMBL5725494, “S1P receptors modulators and their use thereof” (2017).

What was measured:
[1] = target: Sphingosine 1-phosphate receptor 1 (Homo sapiens, UniProt P21453); assay: (§1) S1P Assay: Selected Compounds of the Examples were evaluated at Millipore Corporation, USA, using S1P1 receptor; [35S]-GTPgamaS binding assay. A [35S]-GTPgamaS binding assay at Millipore was conducted by GPCR Profiler¿ Custom Service Laboratory, Temecula, Calif., Millipore, Inc. to monitor dose-dependent agonist selectivity for selected Examples against the S1P1 receptors. The assay was completed with sample compounds subjected to an eight-point, four-fold dose response curve with starting concentration of 10 μM. Selectivity was determined upon initial addition of compounds followed by a 30 minute incubation at 30° C. Following compound incubation, bounded [35S]-GTPgamaS was determined by filtration and scintillation counting. Independently, selected compounds were evaluated for S1P1 and S1P3 agonistic activity. The S1P1 assay system was GTPgama-S35 binding in membranes from CHO K1 cells, expressing S1P1 human receptor. The S1P3 assay system was calcium mobilization in CHO K1 cells expressing S1P3 human receptor. There was no significant background response to S1P in the CHO K1 cells with either assay. Compounds were tested initially at a concentration of 10 μM.; assay type: cell membranes
Chain of Sphingosine 1-phosphate receptor 1 (P21453 whole entry): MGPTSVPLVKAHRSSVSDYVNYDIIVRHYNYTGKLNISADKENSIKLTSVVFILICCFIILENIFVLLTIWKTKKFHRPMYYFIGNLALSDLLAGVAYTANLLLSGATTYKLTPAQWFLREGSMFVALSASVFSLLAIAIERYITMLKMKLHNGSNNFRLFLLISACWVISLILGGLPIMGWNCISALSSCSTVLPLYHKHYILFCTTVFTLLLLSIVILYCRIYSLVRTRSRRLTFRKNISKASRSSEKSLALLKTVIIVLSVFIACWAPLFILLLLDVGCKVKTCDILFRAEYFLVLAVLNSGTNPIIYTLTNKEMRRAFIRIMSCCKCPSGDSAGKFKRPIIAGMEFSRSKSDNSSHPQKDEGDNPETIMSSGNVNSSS

[2] = target: Sphingosine 1-phosphate receptor 3 (Homo sapiens, UniProt Q99500); assay: as §1; assay type: cell membranes
Chain of Sphingosine 1-phosphate receptor 3 (Q99500 whole entry): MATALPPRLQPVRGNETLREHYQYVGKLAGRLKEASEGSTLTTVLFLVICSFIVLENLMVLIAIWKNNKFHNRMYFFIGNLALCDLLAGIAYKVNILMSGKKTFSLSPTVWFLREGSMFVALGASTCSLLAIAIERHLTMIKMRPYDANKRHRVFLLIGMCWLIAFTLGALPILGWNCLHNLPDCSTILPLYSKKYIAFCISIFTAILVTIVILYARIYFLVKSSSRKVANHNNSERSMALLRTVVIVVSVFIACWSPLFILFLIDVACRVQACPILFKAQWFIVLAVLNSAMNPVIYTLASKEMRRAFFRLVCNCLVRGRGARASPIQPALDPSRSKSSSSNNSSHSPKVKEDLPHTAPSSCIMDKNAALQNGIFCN

SMILES | EC50 [1] [nM] | EC50 [2] [nM]
CCOc1ccc(-c2nc(-c3ccc4oc(C(N)(CO)CO)cc4c3)no2)cc1OCC | 57 | 380
CCCCCCCCc1ccc(NC(=O)NCCC(=O)O)cc1 | 460 | 
Cc1ccc(/C=C/c2nc(-c3ccc4oc(C(N)(CO)CO)cc4c3)no2)cc1 | 1820 | 
COc1ccc(COc2ccc(CN3CC(C(=O)O)C3)cc2)cc1C12CC3CC(CC(C3)C1)C2 | 60 | 
CC(C)N(Cc1ccc(-c2ccc(CN3CC(C(=O)O)C3)cc2)cc1)c1ccc(F)cc1 | 600 | 
